Reference: ChEMBL document CHEMBL3297661, “1-Substituted-5-[(3,5-dinitrobenzyl)sulfanyl]-1H-tetrazoles and their isosteric analogs: A new class of selective antitubercular agents active against drug-susceptible and multidrug-resistant mycobacteria” (Eur J Med Chem, 2014)
In brackets after ≈: the same amount, converted by molar mass.

Assays:
Format in all cases: functional
Mycobacterium kansasii [1] = assay: Antimycobacterial activity against Mycobacterium kansasii CNCTC My 235/80 after 7 days by micromethod; conditions: CNCTC My 235/80, 168 h
Mycobacterium kansasii [2] = assay: Antimycobacterial activity against Mycobacterium kansasii CNCTC My 235/80 after 21 days by micromethod; conditions: CNCTC My 235/80, 504 h
Mycobacterium kansasii [3] = assay: Antimycobacterial activity against Mycobacterium kansasii 6509/96 after 14 days by micromethod; conditions: 6509/96, 336 h
Mycobacterium kansasii [4] = assay: Antimycobacterial activity against Mycobacterium kansasii 6509/96 after 21 days by micromethod; conditions: 6509/96, 504 h
[5] = test system: Mycobacterium tuberculosis; assay: Antimycobacterial activity against Mycobacterium tuberculosis CNCTC My 331/88 after 21 days by micromethod; conditions: CNCTC My 331/88, 504 h
Mycobacterium kansasii [6] = assay: Antimycobacterial activity against Mycobacterium kansasii 6509/96 after 7 days by micromethod; conditions: 6509/96, 168 h
Mycobacterium avium [7] = assay: Antimycobacterial activity against Mycobacterium avium CNCTC My 330/88 after 21 days by micromethod; conditions: CNCTC My 330/88, 504 h
Mycobacterium kansasii [8] = assay: Antimycobacterial activity against Mycobacterium kansasii CNCTC My 235/80 after 14 days by micromethod; conditions: CNCTC My 235/80, 336 h
[9] = test system: Mycobacterium tuberculosis; assay: Antimycobacterial activity against Mycobacterium tuberculosis CNCTC My 331/88 after 14 days by micromethod; conditions: CNCTC My 331/88, 336 h
Mycobacterium avium [10] = assay: Antimycobacterial activity against Mycobacterium avium CNCTC My 330/88 after 14 days by micromethod; conditions: CNCTC My 330/88, 336 h

SMILES | MIC (Mycobacterium kansasii [1]) [µM] | MIC (Mycobacterium kansasii [2]) [µM] | MIC (Mycobacterium kansasii [3]) [µM] | MIC (Mycobacterium kansasii [4]) [µM] | MIC [5] [µM] | MIC (Mycobacterium kansasii [6]) [µM] | MIC (Mycobacterium avium [7]) [µM] | MIC (Mycobacterium kansasii [8]) [µM] | MIC [9] [µM] | MIC (Mycobacterium avium [10]) [µM]
COc1ccccc1-n1nnnc1SCc1cc([N+](=O)[O-])cc([N+](=O)[O-])c1 | 125 (≈ 48.5 µg/mL) | 125 (≈ 48.5 µg/mL) | 125 (≈ 48.5 µg/mL) | 125 (≈ 48.5 µg/mL) | 125 (≈ 48.5 µg/mL) | 125 (≈ 48.5 µg/mL) | 125 (≈ 48.5 µg/mL) | 125 (≈ 48.5 µg/mL) | 125 (≈ 48.5 µg/mL) | 125 (≈ 48.5 µg/mL)
COc1ccc(-n2nnnc2SCc2cc(N)cc(N)c2)cc1 | 250 (≈ 82.1 µg/mL) | 1000 (≈ 328 µg/mL) | 1000 (≈ 328 µg/mL) | 1000 (≈ 328 µg/mL) | 125 (≈ 41.1 µg/mL) | 250 (≈ 82.1 µg/mL) | 1000 (≈ 328 µg/mL) | 1000 (≈ 328 µg/mL) | 125 (≈ 41.1 µg/mL) | 1000 (≈ 328 µg/mL)
COc1ccc(-n2nnnc2S(=O)(=O)Cc2cc([N+](=O)[O-])cc([N+](=O)[O-])c2)cc1 | 125 (≈ 52.5 µg/mL) | 250 (≈ 105 µg/mL) | 125 (≈ 52.5 µg/mL) | 125 (≈ 52.5 µg/mL) | 8 (≈ 3.36 µg/mL) | 125 (≈ 52.5 µg/mL) | 125 (≈ 52.5 µg/mL) | 250 (≈ 105 µg/mL) | 8 (≈ 3.36 µg/mL) | 125 (≈ 52.5 µg/mL)
O=[N+]([O-])c1ccc(-n2nnnc2SCc2ccccc2)cc1 | 16 (≈ 5.01 µg/mL) | 32 (≈ 10 µg/mL) | 62 (≈ 19.4 µg/mL) | 62 (≈ 19.4 µg/mL) | 125 (≈ 39.2 µg/mL) | 16 (≈ 5.01 µg/mL) | 62 (≈ 19.4 µg/mL) | 32 (≈ 10 µg/mL) | 125 (≈ 39.2 µg/mL) | 62 (≈ 19.4 µg/mL)
O=[N+]([O-])c1cc(CSc2ccccc2)cc([N+](=O)[O-])c1 | 250 (≈ 72.6 µg/mL) | 250 (≈ 72.6 µg/mL) | 500 (≈ 145 µg/mL) | 500 (≈ 145 µg/mL) | 250 (≈ 72.6 µg/mL) | 500 (≈ 145 µg/mL) | 250 (≈ 72.6 µg/mL) | 250 (≈ 72.6 µg/mL) | 250 (≈ 72.6 µg/mL) | 250 (≈ 72.6 µg/mL)
CCCCCCCCCCCCCCCCSCc1cc([N+](=O)[O-])cc([N+](=O)[O-])c1 | 500 (≈ 219 µg/mL) | 500 (≈ 219 µg/mL) | 500 (≈ 219 µg/mL) | 500 (≈ 219 µg/mL) | 1000 (≈ 439 µg/mL) | 500 (≈ 219 µg/mL) | 1000 (≈ 439 µg/mL) | 500 (≈ 219 µg/mL) | 1000 (≈ 439 µg/mL) | 1000 (≈ 439 µg/mL)
COc1ccc(-n2nnnc2OCc2cc([N+](=O)[O-])cc([N+](=O)[O-])c2)cc1 | 4 (≈ 1.49 µg/mL) | 16 (≈ 5.96 µg/mL) | 16 (≈ 5.96 µg/mL) | 16 (≈ 5.96 µg/mL) | 2 (≈ 0.745 µg/mL) | 4 (≈ 1.49 µg/mL) | 32 (≈ 11.9 µg/mL) | 8 (≈ 2.98 µg/mL) | 2 (≈ 0.745 µg/mL) | 16 (≈ 5.96 µg/mL)
Cc1ccc(-n2nnnc2SCc2cc([N+](=O)[O-])cc([N+](=O)[O-])c2)cc1C | 250 (≈ 96.6 µg/mL) | 250 (≈ 96.6 µg/mL) | 250 (≈ 96.6 µg/mL) | 250 (≈ 96.6 µg/mL) | 500 (≈ 193 µg/mL) | 250 (≈ 96.6 µg/mL) | 250 (≈ 96.6 µg/mL) | 250 (≈ 96.6 µg/mL) | 500 (≈ 193 µg/mL) | 250 (≈ 96.6 µg/mL)
COc1cc(-n2nnnc2SCc2cc([N+](=O)[O-])cc([N+](=O)[O-])c2)cc(OC)c1OC | 16 (≈ 7.17 µg/mL) | 32 (≈ 14.3 µg/mL) | 16 (≈ 7.17 µg/mL) | 32 (≈ 14.3 µg/mL) | 16 (≈ 7.17 µg/mL) | 16 (≈ 7.17 µg/mL) | 250 (≈ 112 µg/mL) | 32 (≈ 14.3 µg/mL) | 16 (≈ 7.17 µg/mL) | 250 (≈ 112 µg/mL)
O=[N+]([O-])c1cc(COc2nnnn2-c2ccccc2)cc([N+](=O)[O-])c1 | 8 (≈ 2.74 µg/mL) | 32 (≈ 11 µg/mL) | 16 (≈ 5.48 µg/mL) | 32 (≈ 11 µg/mL) | 4 (≈ 1.37 µg/mL) | 8 (≈ 2.74 µg/mL) | 125 (≈ 42.8 µg/mL) | 16 (≈ 5.48 µg/mL) | 2 (≈ 0.685 µg/mL) | 125 (≈ 42.8 µg/mL)
O=[N+]([O-])c1cc(CSc2nnnn2C23CC4CC(CC(C4)C2)C3)cc([N+](=O)[O-])c1 | 4 (≈ 1.67 µg/mL) | 16 (≈ 6.66 µg/mL) | 8 (≈ 3.33 µg/mL) | 8 (≈ 3.33 µg/mL) | 4 (≈ 1.67 µg/mL) | 8 (≈ 3.33 µg/mL) | 500 (≈ 208 µg/mL) | 8 (≈ 3.33 µg/mL) | 4 (≈ 1.67 µg/mL) | 500 (≈ 208 µg/mL)
COC(=O)c1cccc(-n2nnnc2SCc2cc([N+](=O)[O-])cc([N+](=O)[O-])c2)c1 | 500 (≈ 208 µg/mL) | 500 (≈ 208 µg/mL) | 500 (≈ 208 µg/mL) | 500 (≈ 208 µg/mL) | 16 (≈ 6.66 µg/mL) | 500 (≈ 208 µg/mL) | 250 (≈ 104 µg/mL) | 500 (≈ 208 µg/mL) | 8 (≈ 3.33 µg/mL) | 250 (≈ 104 µg/mL)
O=[N+]([O-])c1cc(CS(=O)(=O)c2nnnn2-c2ccccc2)cc([N+](=O)[O-])c1 | 32 (≈ 12.5 µg/mL) | 62 (≈ 24.2 µg/mL) | 62 (≈ 24.2 µg/mL) | 62 (≈ 24.2 µg/mL) | 8 (≈ 3.12 µg/mL) | 32 (≈ 12.5 µg/mL) | 125 (≈ 48.8 µg/mL) | 62 (≈ 24.2 µg/mL) | 8 (≈ 3.12 µg/mL) | 62 (≈ 24.2 µg/mL)
Nn1nnnc1SCc1cc([N+](=O)[O-])cc([N+](=O)[O-])c1 | 8 (≈ 2.38 µg/mL) | 32 (≈ 9.51 µg/mL) | 32 (≈ 9.51 µg/mL) | 32 (≈ 9.51 µg/mL) | 16 (≈ 4.76 µg/mL) | 16 (≈ 4.76 µg/mL) | 1000 (≈ 297 µg/mL) | 32 (≈ 9.51 µg/mL) | 8 (≈ 2.38 µg/mL) | 1000 (≈ 297 µg/mL)
